IC50 data for 25 compounds are collected here from patent US12595253B2, “Benzamides of pyrazolylamino-pyrimidinyl derivatives, and compositions and methods thereof” (LYNK PHARMACEUTICALS CO. LTD., priority 2019, dated 2026).

Where a name gives a salt, the structure may show the parent alone.

Holding throughout (assay type): biochemical
One experiment concerns the target T1, JAK1 (Homo sapiens, UniProt P23458).
T1 construct: purchased Carna Biosciences
As to the kind of experiment: JAK1 microfluidic kinase assay (Caliper EZ Reader II, FAM labeled peptide substrate). To be noted: IC50 JAK1 (5 nM) (1 m MATP), JAK1 5 nM, 1 mM ATP. The procedure:
(§1) Compounds were tested against JAK1, JAK2, JAK2V617F and TYK2. Assay Formats: JAK activity was determined in the reaction buffer 50 mM HEPES, 0.01% Brij35, 10 mM MgCl2, 2 mM DTT by a microfluidic assay. The phosphorylation of a FAM labeled peptide substrate was monitored in the Caliper EZ Reader II (Perkin Elmer). The assay condition for each batch of enzyme (Carna Biosciences) was optimized to obtain 10% conversion rate of peptide substrate. The test compounds were dissolved in DMSO to a stock concentration of 10 mM. 3-fold serially diluted compounds with top concentration of 5 μM were pre-incubated with JAK1, JAK2, JAK2V617F or TYK2 at indicated concentrations for 10 min at ambient temperature. The final DMSO concentration of assay mixture was 1%. […] The reaction was stopped by adding 50 mM EDTA. […] The percent inhibition was calculated by the following formula. % Inhibition=(Conversionmax−Conversionsample)/(Conversionmax−Conversionmin)*100 • Conversionmax means the conversion rate in the positive well without addition of compound • Conversionmin means the conversion rate in the well without addition of enzyme • Conversionsample means the conversion rate of test compounds The dose-response (percent inhibition) curve was plotted and IC50 values were determined by GraphPad software.

For the next experiment, the target named is T2, JAK2V617F (Homo sapiens, UniProt O60674, V617F).
T2 construct: purchased Carna Biosciences
T2 sequence (O60674 whole entry V617F): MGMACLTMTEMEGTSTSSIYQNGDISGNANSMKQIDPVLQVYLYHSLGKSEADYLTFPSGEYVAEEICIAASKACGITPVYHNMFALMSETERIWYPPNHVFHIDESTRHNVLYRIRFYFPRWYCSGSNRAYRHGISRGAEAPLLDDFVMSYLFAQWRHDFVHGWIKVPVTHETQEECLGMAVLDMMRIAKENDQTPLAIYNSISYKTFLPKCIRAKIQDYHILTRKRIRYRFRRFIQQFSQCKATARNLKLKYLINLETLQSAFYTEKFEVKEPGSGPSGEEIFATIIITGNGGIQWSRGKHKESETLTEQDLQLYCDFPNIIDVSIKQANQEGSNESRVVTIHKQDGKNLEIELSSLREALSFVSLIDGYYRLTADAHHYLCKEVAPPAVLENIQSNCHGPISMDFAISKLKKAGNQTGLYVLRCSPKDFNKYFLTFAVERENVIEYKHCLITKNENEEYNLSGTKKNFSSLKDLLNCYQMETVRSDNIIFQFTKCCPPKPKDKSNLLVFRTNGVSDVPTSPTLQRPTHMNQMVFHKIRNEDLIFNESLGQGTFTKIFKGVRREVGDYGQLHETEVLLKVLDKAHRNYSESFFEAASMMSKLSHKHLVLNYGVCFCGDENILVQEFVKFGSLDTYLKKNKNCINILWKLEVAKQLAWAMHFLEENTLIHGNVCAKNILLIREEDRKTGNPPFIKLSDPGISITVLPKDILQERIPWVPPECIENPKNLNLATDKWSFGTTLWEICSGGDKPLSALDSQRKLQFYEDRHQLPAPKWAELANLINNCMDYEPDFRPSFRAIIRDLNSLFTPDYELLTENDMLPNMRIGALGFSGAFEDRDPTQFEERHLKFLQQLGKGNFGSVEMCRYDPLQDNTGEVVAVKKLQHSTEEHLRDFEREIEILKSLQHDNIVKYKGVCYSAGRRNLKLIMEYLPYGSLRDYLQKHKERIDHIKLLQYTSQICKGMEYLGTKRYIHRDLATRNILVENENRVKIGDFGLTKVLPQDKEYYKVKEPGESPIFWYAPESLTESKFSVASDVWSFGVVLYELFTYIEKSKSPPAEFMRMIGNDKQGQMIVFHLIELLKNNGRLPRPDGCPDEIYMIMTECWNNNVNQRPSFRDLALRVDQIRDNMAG
The experiment can be described thus: JAK2V617F microfluidic kinase assay (Caliper EZ Reader II, FAM labeled peptide substrate). To be noted: JAK2V617F 2.5 nM, 1 mM ATP. How it is done: as §1

The next experiment concerns the target T3, JAK2 (Homo sapiens, UniProt O60674).
T3 construct: purchased Carna Biosciences
The experiment can be described thus: JAK2 microfluidic kinase assay (Caliper EZ Reader II, FAM labeled peptide substrate). The procedure:
as §1

Setting [1] is: IC50 JAK2 ([…]) (1 mM ATP), 1 mM ATP.
The mark [2] stands for this setting: IC50 JAK2 ([…]) (Km ATP), Km ATP.

T1 sequence (P23458 whole entry): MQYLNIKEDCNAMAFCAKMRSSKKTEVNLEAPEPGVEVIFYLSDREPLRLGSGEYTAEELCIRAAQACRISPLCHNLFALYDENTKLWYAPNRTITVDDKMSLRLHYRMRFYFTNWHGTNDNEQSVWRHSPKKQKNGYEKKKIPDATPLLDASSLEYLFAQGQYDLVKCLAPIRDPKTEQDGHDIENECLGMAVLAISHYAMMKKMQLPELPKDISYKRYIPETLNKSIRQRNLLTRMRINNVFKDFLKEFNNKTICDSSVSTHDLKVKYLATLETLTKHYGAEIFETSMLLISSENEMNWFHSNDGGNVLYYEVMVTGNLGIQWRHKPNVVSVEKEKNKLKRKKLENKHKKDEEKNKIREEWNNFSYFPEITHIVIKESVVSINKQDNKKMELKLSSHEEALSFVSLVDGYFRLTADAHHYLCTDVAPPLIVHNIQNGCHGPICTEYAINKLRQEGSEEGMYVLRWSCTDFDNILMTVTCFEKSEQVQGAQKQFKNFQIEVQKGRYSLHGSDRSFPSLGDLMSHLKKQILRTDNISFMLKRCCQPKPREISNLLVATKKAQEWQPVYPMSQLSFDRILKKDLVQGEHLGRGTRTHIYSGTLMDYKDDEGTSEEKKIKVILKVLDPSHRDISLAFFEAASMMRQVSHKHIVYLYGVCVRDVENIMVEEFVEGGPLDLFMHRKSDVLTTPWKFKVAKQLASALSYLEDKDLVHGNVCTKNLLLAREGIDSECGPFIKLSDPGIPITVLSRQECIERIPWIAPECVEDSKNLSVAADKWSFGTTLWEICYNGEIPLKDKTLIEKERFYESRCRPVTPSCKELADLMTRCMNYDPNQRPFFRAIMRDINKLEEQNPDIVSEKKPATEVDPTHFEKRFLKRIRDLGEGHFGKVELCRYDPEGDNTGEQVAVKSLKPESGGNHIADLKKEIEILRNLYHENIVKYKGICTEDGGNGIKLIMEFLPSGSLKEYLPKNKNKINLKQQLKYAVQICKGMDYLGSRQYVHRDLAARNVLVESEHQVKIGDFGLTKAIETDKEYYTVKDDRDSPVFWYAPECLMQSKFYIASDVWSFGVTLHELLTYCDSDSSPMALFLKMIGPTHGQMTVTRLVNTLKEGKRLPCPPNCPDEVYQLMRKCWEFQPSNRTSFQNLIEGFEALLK
T3 sequence (O60674 whole entry): as the sequence (O60674 whole entry V617F) above, with F617V counted along it

The term IC50 denotes the concentration at which inhibition is half-maximal. Read a high IC50 as lower potency. Turning to `CC(C)(C)C(=O)N1CCC(n2cc(Nc3ncc(F)c(-c4ccc(C(=O)NCC#N)cc4)n3)cn2)CC1` [Example 56, N-(cyanomethyl)-4-(5-fluoro-2-((1-(1-pivaloylpiperidin-4-yl)-1H-pyrazol-4-yl)amino)pyrimidin-4-yl)benzamide], the IC50 on JAK1 worked out at 167 nM; on JAK2V617F, 52.6 nM.

As to `Cc1cnc(Nc2cnn(C3CCNCC3)c2)nc1-c1ccc(C(=O)NCC(N)=O)cc1` [Example 82, N-(2-amino-2-oxoethyl)-4-(5-methyl-2-((1-(piperidin-4-yl)-1H-pyrazol-4-yl)amino)pyrimidin-4-yl)benzamide hydrochloride], the IC50 is 300 nM against JAK1, 202 nM at JAK2 (setting [1]) and 7.53 nM on JAK2 (setting [2]).

On to `CC[C@@H](C#N)NC(=O)c1ccc(-c2nc(Nc3cnn(C4CCOCC4)c3)ncc2C)cc1` [Example 201, (S)—N-(1-cyanopropyl)-4-(5-methyl-2-((1-(tetrahydro-2H-pyran-4-yl)-1H-pyrazol-4-yl)amino)pyrimidin-4-yl)benzamide], for which the figures for the 50% inhibitory concentration (IC50) at JAK1 and at JAK2V617F were 2.22 nM and 3.03 nM, respectively.

Consider `N#CCNC(=O)c1ccc(-c2nc(Nc3cnn(C4CC4)c3)ncc2C(F)F)cc1` [Example 110, N-(cyanomethyl)-4-(2-((1-cyclopropyl-1H-pyrazol-4-yl)amino)-5-(difluoromethyl)pyrimidin-4-yl)benzamide], for which the IC50 at JAK1 was 152 nM; on JAK2V617F it was 556 nM.

Consider `Cn1cc(Nc2ncc(Cl)c(-c3ccc(C(=O)NCC4(C#N)CC4)cc3)n2)cn1` [Example 124], for which the IC50 at JAK1 is 22 nM; at JAK2 (setting [1]), 47.1 nM.

On to `Cc1cnc(Nc2cnn(C3CC(C)(C)OC(C)(C)C3)c2)nc1-c1ccc(C(=O)N[C@@H](C)C#N)c(F)c1` [Example 224, (S)—N-(1-Cyanoethyl)-2-fluoro-4-(5-methyl-2-((1-(2,2,6,6-tetramethyltetrahydro-2H-pyran-4-yl)-1H-pyrazol-4-yl)amino)pyrimidin-4-yl)benzamide], for which the IC50 on JAK1 is 98.4 nM; at JAK2 (setting [1]), 0.49 nM.

For `Cc1cnc(Nc2cnn([C@H]3CC[C@@H](C#N)CC3)c2)nc1-c1ccc(C(=O)N[C@@H](C)C#N)cc1` [Example 149, 4-(2-((1-(Cis-4-cyanocyclohexyl)-1H-pyrazol-4-yl)amino)-5-methylpyrimidin-4-yl)-N—((S)-1-cyanoethyl)benzamide], the IC50 against JAK1 was 15 nM; on JAK2V617F it was 30.5 nM.

Regarding `Cc1cnc(Nc2cnn(C3CCN(C(=O)C4CC4)CC3)c2)nc1-c1ccc(C(=O)N[C@@H](C)C#N)nc1` [Example 151, (S)—N-(1-cyanoethyl)-5-(2-((1-(1-(cyclopropanecarbonyl)piperidin-4-yl)-1H-pyrazol-4-yl)amino)-5-methylpyrimidin-4-yl)picolinamide], the IC50 on JAK1 came out at 72.1 nM; at JAK2 (setting [1]) it was 32.4 nM.

In the case of `C[C@@H](C#N)NC(=O)c1ccc(-c2nc(Nc3cnn(C4CC4)c3)ncc2Cl)cn1` [Example 121, (S)-5-(5-chloro-2-((1-cyclopropyl-1H-pyrazol-4-yl)amino)pyrimidin-4-yl)-N-(1-cyanoethyl)picolinamide], the IC50 on JAK1 amounted to 67.4 nM; at JAK2V617F, 245 nM.

For `N#CCNC(=O)c1ccc(-c2ccnc(Nc3cnn(C4CC4)c3)n2)cc1F` [Example 139, N-(Cyanomethyl)-4-(2-((1-cyclopropyl-1H-pyrazol-4-yl)amino)pyrimidin-4-yl)-2-fluorobenzamide], the figures for the IC50 on JAK1, on JAK2 (setting [1]) and against JAK2 (setting [2]) were 291 nM, 219 nM and 5.3 nM, respectively.

Regarding `COC[C@@H](C#N)NC(=O)c1ccc(-c2nc(Nc3cnn(C4CC4)c3)ncc2C)cc1` [Example 187, (R)—N-(1-Cyano-2-methoxyethyl)-4-(2-((1-cyclopropyl-1H-pyrazol-4-yl)amino)-5-methylpyrimidin-4-yl)benzamide], the half-maximal inhibitory concentration (IC50) on JAK1 turned out to be 5.77 nM; on JAK2 (setting [1]), 13.7 nM.

`CC[C@@H](C#N)NC(=O)c1ccc(-c2nc(Nc3cnn(C)c3)ncc2Cl)cc1` [Example 220, (S)-4-(5-chloro-2-((1-methyl-1H-pyrazol-4-yl)amino)pyrimidin-4-yl)-N-(1-cyanopropyl)benzamide]: the IC50 is 16.2 nM against JAK1 and 70 nM on JAK2 (setting [1]).

For the compound `CC1(C)CC(n2cc(Nc3ncc(Cl)c(-c4ccc(C(=O)NCC#N)cc4)n3)cn2)CC(C)(C)O1` [Example 181, 4-(5-Chloro-2-((1-(2,2,6,6-tetramethyltetrahydro-2H-pyran-4-yl)-1H-pyrazol-4-yl)amino)pyrimidin-4-yl)-N-(cyanomethyl)benzamide], the IC50 at JAK1 was 11.5 nM; at JAK2 (setting [1]), < 0.25 nM.

`Cc1cnc(Nc2cnn(C3CCN(C(=O)C(C)(C)O)CC3)c2)nc1-c1ccc(C(=O)NC(C)C#N)cc1` (stereo in doubt) [Example 52, (S)—N-(1-cyanoethyl)-4-(2-((1-(1-(2-hydroxy-2-methylpropanoyl)piperidin-4-yl)-1H-pyrazol-4-yl)amino)-5-methylpyrimidin-4-yl)benzamide]: the values for the IC50 against JAK1 and on JAK2 (setting [1]) were 10.7 nM and 0.86 nM, respectively.

Regarding `[2H]c1c([2H])c(-c2nc(Nc3cnn(C4CC4)c3)ncc2Cl)c([2H])c([2H])c1C(=O)N[C@@H](C)C#N` [Example 162, (S)-4-(5-chloro-2-((1-cyclopropyl-1H-pyrazol-4-yl)amino)pyrimidin-4-yl)-N-(1-cyanoethyl)benzamide-2,3,5,6-d4], the IC50 against JAK1 was 4.61 nM; against JAK2 (setting [1]), 1.12 nM.

Take `Cc1cnc(Nc2cnn(C3CCN(C(=O)C4(O)CC4)CC3)c2)nc1-c1ccc(C(=O)N[C@@H](C)C#N)cc1` [Example 79, (S)—N-(1-Cyanoethyl)-4-(2-((1-(1-(1-hydroxycyclopropanecarbonyl)piperidin-4=yl)-1H-pyrazol-4-yl)amino)-5-methylpyrimidin-4-yl)benzamide]: the IC50 on JAK2V617F amounted to 0.44 nM.

As to `C[C@@H](C#N)NC(=O)c1ccc(-c2nc(Nc3cnn(C4CCN(C(=O)C(C)(C)C)CC4)c3)ncc2F)cc1` [Example 57, (S)—N-(1-cyanoethyl)-4-(5-fluoro-2-((1-(1-pivaloylpiperidin-4-yl)-1H-pyrazol-4-yl)amino)pyrimidin-4-yl)benzamide], the results for the IC50 against JAK1 and against JAK2 (setting [1]) were 132 nM and 39.1 nM, respectively.

As for `Cc1cnc(Nc2cnn(C3CC(F)(F)C3)c2)nc1-c1ccc(C(=O)NCC#N)cc1` [Example 104, N-(cyanomethyl)-4-(2-((1-(3,3-difluorocyclobutyl)-1H-pyrazol-4-yl)amino)-5-methylpyrimidin-4-yl)benzamide], the values for the concentration for half-maximal inhibition (IC50) against JAK1 and against JAK2 (setting [1]) were 280 nM and 1150 nM, respectively.

On to `Cc1cnc(Nc2cnn(C)c2)nc1-c1ccc(C(=O)NCCC#N)cc1` [Example 2, N-(2-Cyanoethyl)-4-(5-methyl-2-((1-methyl-1H-pyrazol-4-yl)amino)pyrimidin-4-yl)benzamide], for which the IC50 on JAK1 was determined as 33.6 nM; on JAK2 (setting [1]), 57.2 nM; against JAK2 (setting [2]) it was 1.77 nM.

As for `Cc1cnc(Nc2cnn(CC(C)(C)C#N)c2)nc1-c1ccc(C(=O)NCC(F)(F)F)cc1` [Example 81, 4-(2-((1-(2-Cyano-2-methylpropyl)-1H-pyrazol-4-yl)amino)-5-methylpyrimidin-4-yl)-N-(2,2,2-trifluoroethyl)benzamide], it took 114 nM to reach half-maximal inhibition against JAK2V617F (IC50).

With `Cc1cnc(Nc2cnn(CC(F)F)c2)nc1-c1ccc(C(=O)NCC#N)cc1` [Example 27, N-(Cyanomethyl)-4-(2-((1-(2,2-difluoroethyl)-1H-pyrazol-4-yl)amino)-5-methylpyrimidin-4-yl)benzamide], the IC50 on JAK2 (setting [1]) was 50.2 nM; at JAK2 (setting [2]), 1.97 nM; against JAK2V617F, 104 nM.

On to `N#CCNC(=O)c1ccc(-c2nc(Nc3cnn(C4CCN(C(=O)C5CC5)CC4)c3)ncc2C(F)(F)F)cc1` [Example 161, N-(cyanomethyl)-4-(2-((1-(1-(cyclopropanecarbonyl)piperidin-4-yl)-1H-pyrazol-4-yl)amino)-5-(trifluoromethyl)pyrimidin-4-yl)benzamide], for which the IC50 against JAK1 and against JAK2 (setting [1]) was > 5000 nM in each case.

On to `Cc1cnc(Nc2cnn(C)c2)nc1-c1ccc(C(=O)NCC2(O)CC2)cc1` [Example 32, N-((1-Hydroxycyclopropyl)methyl)-4-(5-methyl-2-((1-methyl-1H-pyrazol-4-yl)amino)pyrimidin-4-yl)benzamide], for which the IC50 against JAK1 worked out at 53 nM; at JAK2 (setting [1]), 165 nM; against JAK2 (setting [2]), 5.15 nM.

Consider `Cc1cnc(Nc2cnn(C3CCN(C)CC3)c2)nc1-c1ccc(C(=O)N2CC(C#N)C2)cc1` [Example 92, 1-(4-(5-Methyl-2-((1-(1-methylpiperidin-4-yl)-1H-pyrazol-4-yl)amino)pyrimidin-4-yl)benzoyl)azetidine-3-carbonitrile], for which the IC50 is 253 nM against JAK1, 114 nM at JAK2 (setting [1]) and 3.6 nM against JAK2 (setting [2]).

Take `CC[C@@H](C#N)NC(=O)c1ccc(-c2nc(Nc3cnn(C)c3)ncc2C)cc1` [Example 219, (S)—N-(1-cyanopropyl)-4-(5-methyl-2-((1-methyl-1H-pyrazol-4-yl)amino)pyrimidin-4-yl)benzamide]: the IC50 is 5.53 nM against JAK1 and 42.5 nM at JAK2 (setting [1]).
